In the NIST ThermoML archive (doi:10.1021/acs.jced.5b01023):
Values joined by “and” are separate entries in the source; they are usually repeats but may differ in a detail not shown here. Equal values may be shown once.

How the values were obtained:
[1] = refractive index (Na D-line) (dimensionless); conditions: 101 kPa, Liquid, Standard Abbe refractometry
[2] = for viscosity / mass density: 101 kPa, Liquid; for viscosity: Capillary tube (Ostwald / Ubbelohde) method; for mass density: Vibrating tube method
[3] = xn = mol fraction of the nth substance listed; conditions: for viscosity / mass density: 101 kPa, Liquid; for viscosity: Capillary tube (Ostwald / Ubbelohde) method; for mass density: Vibrating tube method
[4] = refractive index (Na D-line) (dimensionless); xn = mol fraction of the nth substance listed; conditions: 101 kPa, Liquid, Standard Abbe refractometry, x2 = 0

CC(=O)[O-].CCn1cc[n+](C)c1 [1-ethyl-3-methylimidazolium acetate]
Conditions | mass density, [2] [kg/m3] | refractive index, [1] | viscosity, [2] [mPa·s]
288.15 K | 1105.2 | 1.50285 | 283.8
298.15 K | 1099.03 | 1.50069 | 139
308.15 K | 1092.93 | 1.49803 | 77.32
318.15 K | 1086.86 | 1.49527 | 47.37
328.15 K | 1080.82 | 1.49266 | 31.29
338.15 K | 1074.83 | 1.48995 | 21.85
348.15 K | 1068.88 | 1.48721 | 16.01

[2], Wilhelmy plates
Conditions | surface tension liquid-gas
278.2 K | 48.1 mN/m
288.15 K | 47.7 mN/m
298.15 K | 47.1 mN/m
308.15 K | 46.6 mN/m and 46.1 mN/m
318.15 K | 46.1 mN/m
328.15 K | 45.9 mN/m
338.15 K | 45.4 mN/m
348.15 K | 45.1 mN/m

CC(=O)[O-].CCn1cc[n+](C)c1 [1-ethyl-3-methylimidazolium acetate] + CO
surface tension liquid-gas [mN/m], [3], Wilhelmy plate
Conditions | x1 = 0.1 | x1 = 0.2 | x1 = 0.3 | x1 = 0.4 | x1 = 0.5 | x1 = 0.6 | x1 = 0.6999 | x1 = 0.8003 | x1 = 0.9003 | x1 = 1
278.2 K | 28.5 | 32.7 | 35.9 | 38.4 | 40.3 | 42.1 | 44.3 | 45.9 | 47.6 | 48.1
288.2 K | 28.1 | 32.1 | 35.3 | 38 | 40 | 41.6 | 43.8 | 45.1 | 46.9 | 47.7
298.2 K | 27.5 | 31.6 | 35 | 37.5 | 39.6 | 41.1 | 43.3 | 44.7 | 46.4 | 47.1
308.2 K | 26.8 | 31.1 | 34.5 | 37.1 | 39 | 40.8 | 42.8 | 44.2 | 45.9 | 46.6
318.2 K | 26.3 | 30.6 | 33.9 | 36.5 | 38.7 | 40.4 | 42.4 | 43.9 | 45.3 | 46.1

CO [methanol]
[2], Wilhelmy plate
Conditions | surface tension liquid-gas [mN/m]
278.2 K | 23.8
288.2 K | 23.6
298.2 K | 22.7
308.2 K | 21.9
318.2 K | 21

CO [methanol] + CC(=O)[O-].CCn1cc[n+](C)c1
[3], Wilhelmy plate, x2 = 0
Conditions | surface tension liquid-gas [mN/m]
278.2 K | 23.8
288.2 K | 23.6
298.2 K | 22.7
308.2 K | 21.9
318.2 K | 21

CCCO [propan-1-ol]
Conditions | mass density, [2] [kg/m3] | refractive index, [1] | viscosity, [2] [mPa·s]
288.15 K | 807.55 | 1.38694 | 2.506
298.15 K | 799.56 | 1.38303 | 1.952
308.15 K | 791.46 | 1.37914 | 1.545
318.15 K | 783.2 | 1.375 | 1.238
328.15 K | 774.72 | 1.37075 | 1.006
338.15 K | 765.98 | 1.36667 | 0.824
348.15 K | 756.91 | 1.36201 | 0.684

[2], Wilhelmy plates
Conditions | surface tension liquid-gas [mN/m]
288.15 K | 23.9
298.15 K | 23.4
308.15 K | 22.4
318.15 K | 22
328.15 K | 20.9
338.15 K | 19.7
348.15 K | 19

CCCO [propan-1-ol] + CC(=O)[O-].CCn1cc[n+](C)c1
[3], Wilhelmy plates, x2 = 0
Conditions | surface tension liquid-gas [mN/m]
288.15 K | 23.9
298.15 K | 23.4
308.15 K | 22.4
318.15 K | 22
328.15 K | 20.9
338.15 K | 19.7
348.15 K | 19

[3], x2 = 0
Conditions | mass density [kg/m3] | viscosity [mPa·s]
288.15 K | 807.55 | 2.506
298.15 K | 799.56 | 1.952
308.15 K | 791.46 | 1.545
318.15 K | 783.2 | 1.238
328.15 K | 774.72 | 1.006
338.15 K | 765.98 | 0.824
348.15 K | 756.91 | 0.684

[4]
Conditions | refractive index
288.15 K | 1.38694
298.15 K | 1.38303
308.15 K | 1.37914
318.15 K | 1.375
328.15 K | 1.37075
338.15 K | 1.36667
348.15 K | 1.36201

CC(C)O [propan-2-ol]
Conditions | mass density, [2] [kg/m3] | refractive index, [1] | viscosity, [2] [mPa·s]
288.15 K | 789.18 | 1.37933 | 2.752
298.15 K | 780.84 | 1.37517 | 2.018
308.15 K | 772.23 | 1.37093 | 1.507
318.15 K | 763.27 | 1.36643 | 1.15
328.15 K | 753.89 | 1.36173 | 0.895
338.15 K | 744.02 | 1.35682 | 0.704

[2], Wilhelmy plates
Conditions | surface tension liquid-gas [mN/m]
288.15 K | 21.6
298.15 K | 21.2
308.15 K | 20.5
318.15 K | 19.6
328.15 K | 18.7
338.15 K | 17.4

CC(C)O [propan-2-ol] + CC(=O)[O-].CCn1cc[n+](C)c1
[3], Wilhelmy plates, x2 = 0
Conditions | surface tension liquid-gas [mN/m]
288.15 K | 21.6
298.15 K | 21.2
308.15 K | 20.5
318.15 K | 19.6
328.15 K | 18.7
338.15 K | 17.4

[3], x2 = 0
Conditions | mass density [kg/m3] | viscosity [mPa·s]
288.15 K | 789.18 | 2.752
298.15 K | 780.84 | 2.018
308.15 K | 772.23 | 1.507
318.15 K | 763.27 | 1.15
328.15 K | 753.89 | 0.895
338.15 K | 744.02 | 0.704

[4]
Conditions | refractive index
288.15 K | 1.37933
298.15 K | 1.37517
308.15 K | 1.37093
318.15 K | 1.36643
328.15 K | 1.36173
338.15 K | 1.35682
